Laboratory results as given in patent US20140057915A1, “KINASE INHIBITORS” (TOPIVERT PHARMA LIMITED, priority 2012, published 2014).

How the values were obtained:
d-U937 cells = experiment: Cell viability: MTT assay; type: cell-based, human; conditions: 1 μg/mL
Summary of the method: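 Differentiated U937 cells exposed to compound at 1 or 10 μg/mL, either 4 h in 5% FCS or 24 h in 10% FCS RPMI1640. MTT then added for 1 h, formazan dissolved in DMSO and read at 550 nm. Viability loss given as % versus 0.5% DMSO vehicle; apparent gains appear negative.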

[1] = test system: TNFα release, d-U937 cells; experiment: LPS-induced TNFα release in d-U937 cells; type: cell-based; conditions: Homo sapiens, dU937; relative to 10 μg/mL BIRB796; Table 4c1; read-out: LPS Induced Release of Cytokine in d-U937 Cells, TNFα REC50
Summary of the method: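 U937 cells differentiated with PMA (100 ng/mL, 48–72 hr), pre-treated with compound for 2 hr, then stimulated with E. coli LPS (0.1 μg/mL) for 4 hr. Supernatant cytokine measured by sandwich ELISA; inhibition versus vehicle control, REC50 from concentration-response curve.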

GSK3α [2] = target: T1, GSK3α (Homo sapiens, UniProt P49840); experiment: GSK 3α enzyme inhibition (FRET), Method 1; type: biochemical; conditions: Table 4a1
T1 sequence (P49840 whole entry): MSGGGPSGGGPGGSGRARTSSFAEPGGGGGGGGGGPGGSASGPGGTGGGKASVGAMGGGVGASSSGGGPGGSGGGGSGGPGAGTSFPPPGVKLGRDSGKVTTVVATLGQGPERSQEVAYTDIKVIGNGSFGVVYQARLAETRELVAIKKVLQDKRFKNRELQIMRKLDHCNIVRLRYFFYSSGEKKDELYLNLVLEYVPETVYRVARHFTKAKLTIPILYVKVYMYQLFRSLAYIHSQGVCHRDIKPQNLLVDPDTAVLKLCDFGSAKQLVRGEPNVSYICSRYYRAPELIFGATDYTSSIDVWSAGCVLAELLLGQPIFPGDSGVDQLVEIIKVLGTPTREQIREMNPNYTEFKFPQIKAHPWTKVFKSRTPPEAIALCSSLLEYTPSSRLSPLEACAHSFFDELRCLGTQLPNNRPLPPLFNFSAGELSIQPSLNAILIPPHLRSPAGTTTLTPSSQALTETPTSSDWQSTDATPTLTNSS
Summary of the method: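 Inhibition is scored from phosphorylation of a dual-labelled synthetic peptide, measured by FRET after protease cleavage of unphosphorylated substrate. Incubations are 2 hr compound with enzyme, then 1 hr kinase reaction.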

cSrc = cSrc (Homo sapiens, UniProt P12931); experiment: c-Src enzyme inhibition (FRET); type: biochemical; conditions: Table 4a1
Chain of cSrc (P12931 whole entry): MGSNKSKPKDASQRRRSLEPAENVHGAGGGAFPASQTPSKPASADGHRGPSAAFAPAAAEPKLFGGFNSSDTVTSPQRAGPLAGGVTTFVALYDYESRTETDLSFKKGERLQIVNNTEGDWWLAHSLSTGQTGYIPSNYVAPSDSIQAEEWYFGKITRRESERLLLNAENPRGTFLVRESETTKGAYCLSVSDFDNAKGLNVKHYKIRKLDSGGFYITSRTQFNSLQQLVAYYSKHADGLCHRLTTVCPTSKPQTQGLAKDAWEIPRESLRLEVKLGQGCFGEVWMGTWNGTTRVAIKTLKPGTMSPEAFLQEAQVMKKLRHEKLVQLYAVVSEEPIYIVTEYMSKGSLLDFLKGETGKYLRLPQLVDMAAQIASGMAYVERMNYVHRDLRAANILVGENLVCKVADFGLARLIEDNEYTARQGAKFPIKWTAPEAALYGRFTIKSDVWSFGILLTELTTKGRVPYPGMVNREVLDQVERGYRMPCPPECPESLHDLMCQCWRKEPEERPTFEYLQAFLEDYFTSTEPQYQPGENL
Summary of the method: (§1)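 Enzyme was preincubated with test compound (added as 4, 0.4, 0.04 or 0.004 μg/mL solutions) for 2 hr at RT. FRET peptide (8 μM solution) and ATP solution (800 μM for c-Src, 60 μM for Syk) were then added for 1 hr, followed by 1 hr protease development.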

[3] = test system: IL-8 release, d-U937 cells; experiment: LPS-induced IL-8 release in d-U937 cells; type: cell-based; conditions: Homo sapiens, dU937; Table 4c1; read-out: LPS Induced Release of Cytokine in d-U937 Cells, IL-8 IC50
Summary of the method: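 IL-8 release after a 4 hr challenge with LPS (0.1 μg/mL, E. coli 0111:B4) following a 2 hr compound pretreatment. Cells were human U937 monocytes differentiated to macrophage-type with PMA 100 ng/mL for 48–72 hr. Relative 50% effective concentration derived from concentration–response data.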

Syk = Syk (Homo sapiens, UniProt P43405); experiment: Syk enzyme inhibition (FRET); type: biochemical; conditions: Table 4a1
Summary of the method: as §1

[4] = test system: ICAM-1 expression, BEAS2B cells; experiment: Poly I:C-induced ICAM-1 expression in BEAS2B cells; type: cell-based; conditions: Homo sapiens, BEAS-2B; read-out: Poly IC induced ICAM1 in BEAS2B, IC50
Summary of the method: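 BEAS2B human bronchial epithelial cells pre-incubated 2 h with compound, then transfected with poly I:C (1 μg/mL) plus Oligofectamine. After 18 h, cell-surface ICAM-1 read by cell-based ELISA (A450–655), normalised to Crystal Violet cell number (A595); inhibition calculated against vehicle control at each concentration.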

GSK3α [5] = target: T1, GSK3α; experiment: GSK 3α enzyme inhibition (FRET), Method 2; type: biochemical; conditions: Table 4a2, different laboratory
IL-8 release, PBMCs = experiment: LPS-induced IL-8 release in PBMC cells; type: cell-based; conditions: Homo sapiens, LPS stimulated, read-out: IC50 Values for Inhibition of Cytokine Release, PBMCs, IL-8
Experimental: (b) LPS-Induced TNFα/IL-8 Release in PBMC Cells
Peripheral blood mononuclear cells (PBMCs) from healthy subjects are separated from whole blood using a density gradient (Lymphoprep, Axis-Shield Healthcare). The PBMCs are seeded in 96 well plates and treated with compounds at the desired concentration for 2 hours before addition of 1 ng/ml LPS (Escherichia Coli 0111:B4 from Sigma Aldrich) for 24 hours under normal tissue culture conditions (37° C., 5% CO2). The supernatant is harvested for determination of […] concentrations by sandwich ELISA (Duo-set, R&D systems) and read on the fluorescence microplate reader (Varioskan® Flash, ThermoFisher Scientific).

Structure (SMILES) | EC50 [1] [nM] | IC50 (GSK3α [2]) [nM] | IC50 (cSrc) [nM] | IC50 [3] [nM] | IC50 (Syk) [nM] | IC50 (GSK3α [5]) [nM] | Cell viability at time point in d-U937 cells, 4 h (d-U937 cells) | Cell viability at time point in d-U937 cells, 24 h (d-U937 cells) | IC50 [4] [nM] | IC50 (IL-8 release, PBMCs) [nM]
COCCNC(=O)c1cc(Nc2nccc(Oc3ccc(NC(=O)Nc4cc(C(C)(C)C)nn4-c4ccc(C)cc4)c4ccccc34)n2)cc(OC)c1 [Example 67, 3-((4-((4-(3-(3-(tert-butyl)-1-(p-tolyl)-1H-pyrazol-5-yl)ureido)naphthalen-1-yl)oxy)pyrimidin-2-yl)amino)-5-methoxy-N-(2-methoxyethyl)benzamide] | 0.1 | 452 | 4 | 1 | 40 | – | −ve (−ve and +ve indicate that the value is below and above respectively, the no significant effect threshold, defined as 30% inhibition at 1 μg/mL at the time point indicated) | −ve (−ve and +ve indicate that the value is below and above respectively, the no significant effect threshold, defined as 30% inhibition at 1 μg/mL at the time point indicated) | 140 | –
COc1cc(Nc2nccc(Oc3ccc(NC(=O)Nc4cc(C(C)C)nn4-c4ccc(C)cc4)c4ccccc34)n2)cc(C(=O)N(C)CCN2CCOCC2)c1 [Example 68, 3-((4-((4-(3-(3-isopropyl-1-(p-tolyl)-1H-pyrazol-5-yl)ureido)naphthalen-1-yl)oxy)pyrimidin-2-yl)amino)-5-methoxy-N-methyl-N-(2-morpholinoethyl)benzamide] | 0.2 | 111 | < 1 | 0.5 | 2 | – | −ve (−ve and +ve indicate that the value is below and above respectively, the no significant effect threshold, defined as 30% inhibition at 1 μg/mL at the time point indicated) | −ve (−ve and +ve indicate that the value is below and above respectively, the no significant effect threshold, defined as 30% inhibition at 1 μg/mL at the time point indicated) | 3.9 | –
COc1ccc(Nc2nccc(Oc3ccc(NC(=O)Nc4cc(C(C)C)nn4-c4ccc(C)cc4)c4ccccc34)n2)cc1C(=O)NCCN1CCOCC1 [Example 70, 5-((4-((4-(3-(3-isopropyl-1-(p-tolyl)-1H-pyrazol-5-yl)ureido)naphthalen-1-yl)oxy)pyrimidin-2-yl)amino)-2-methoxy-N-(2-morpholinoethyl)benzamide] | 0.6 | 525 | 2 | 1.5 | 22 | – | −ve (−ve and +ve indicate that the value is below and above respectively, the no significant effect threshold, defined as 30% inhibition at 1 μg/mL at the time point indicated) | −ve (−ve and +ve indicate that the value is below and above respectively, the no significant effect threshold, defined as 30% inhibition at 1 μg/mL at the time point indicated) | 8.9 | –
COc1cc(Nc2cc(Oc3ccc(NC(=O)Nc4cc(C(C)C)nn4-c4ccc(C)cc4)c4ccccc34)ncn2)cc(C(=O)NCCN2CCOCC2)c1 [Example 71, 3-((6-((4-(3-(3-isopropyl-1-(p-tolyl)-1H-pyrazol-5-yl)ureido)naphthalen-1-yl)oxy)pyrimidin-4-yl)amino)-5-methoxy-N-(2-morpholinoethyl)benzamide] | 2.7 | 5770 | < 1 | 1.9 | 547 | – | −ve (−ve and +ve indicate that the value is below and above respectively, the no significant effect threshold, defined as 30% inhibition at 1 μg/mL at the time point indicated) | −ve (−ve and +ve indicate that the value is below and above respectively, the no significant effect threshold, defined as 30% inhibition at 1 μg/mL at the time point indicated) | 7.3 | –
C#Cc1cc(Nc2nccc(Oc3ccc(NC(=O)Nc4cc(C(C)(C)C)nn4-c4ccc(OC)nc4)c4ccccc34)n2)cc(C(=O)NCCN2CCOCC2)c1 [Example 73, 3-((4-((4-(3-(3-(tert-Butyl)-1-(6-methoxypyridin-3-yl)-1H-pyrazol-5-yl)ureido)naphthalen-1-yl)oxy)pyrimidin-2-yl)amino)-5-ethynyl-N-(2-morpholinoethyl)benzamide] | – | – | – | – | – | 402 | – | – | – | 0.5

Second part, led by results:

EC50 [1] [nM] | IC50 (GSK3α [2]) [nM] | IC50 (cSrc) [nM] | IC50 [3] [nM] | IC50 (Syk) [nM] | IC50 (GSK3α [5]) [nM] | Structure (SMILES) | Cell viability at time point in d-U937 cells, 4 h (d-U937 cells) | Cell viability at time point in d-U937 cells, 24 h (d-U937 cells) | IC50 [4] [nM] | IC50 (IL-8 release, PBMCs) [nM]
0.4 | 122 | 2 | 0.8 | 13 | – | COc1cc(Nc2nccc(Oc3ccc(NC(=O)Nc4cc(C(C)(C)C)nn4-c4ccc(C)cc4)c4ccccc34)n2)cc(C(=O)NCCO)c1 [Example 64, 3-((4-((4-(3-(3-(tert-butyl)-1-(p-tolyl)-1H-pyrazol-5-yl)ureido)naphthalen-1-yl)oxy)pyrimidin-2-yl)amino)-N-(2-hydroxyethyl)-5-methoxybenzamide] | −ve (−ve and +ve indicate that the value is below and above respectively, the no significant effect threshold, defined as 30% inhibition at 1 μg/mL at the time point indicated) | −ve (−ve and +ve indicate that the value is below and above respectively, the no significant effect threshold, defined as 30% inhibition at 1 μg/mL at the time point indicated) | 1 | –
1.6 | > 14300 | 6 | 3.4 | 234 | – | COCCNC(=O)c1cc(Nc2nccc(Oc3ccc(NC(=O)Nc4cc(C(C)C)nn4-c4ccc(C)cc4)c4ccccc34)n2)cc(OC)c1 [Example 66, 3-((4-((4-(3-(3-isopropyl-1-(p-tolyl)-1H-pyrazol-5-yl)ureido)naphthalen-1-yl)oxy)pyrimidin-2-yl)amino)-5-methoxy-N-(2-methoxyethyl)benzamide] | −ve (−ve and +ve indicate that the value is below and above respectively, the no significant effect threshold, defined as 30% inhibition at 1 μg/mL at the time point indicated) | −ve (−ve and +ve indicate that the value is below and above respectively, the no significant effect threshold, defined as 30% inhibition at 1 μg/mL at the time point indicated) | 2.2 | –
0.2 | 282 | 1 | 0.3 | 8 | – | COc1cc(Nc2nccc(Oc3ccc(NC(=O)Nc4cc(C(C)C)nn4-c4ccc(C)cc4)c4ccccc34)n2)cc(C(=O)N2CCN(C)CC2)c1 [Example 69, 1-(3-isopropyl-1-(p-tolyl)-1H-pyrazol-5-yl)-3-(4-((2-((3-methoxy-5-(4-methylpiperazine-1-carbonyl)phenyl)amino)pyrimidin-4-yl)oxy)naphthalen-1-yl)urea] | −ve (−ve and +ve indicate that the value is below and above respectively, the no significant effect threshold, defined as 30% inhibition at 1 μg/mL at the time point indicated) | −ve (−ve and +ve indicate that the value is below and above respectively, the no significant effect threshold, defined as 30% inhibition at 1 μg/mL at the time point indicated) | 7.5 | –
1.2 | > 13000 | 4 | 2.1 | 202 | – | COc1cc(Nc2cc(Oc3ccc(NC(=O)Nc4cc(C(C)(C)C)nn4-c4ccc(C)cc4)c4ccccc34)ncn2)cc(C(=O)NCCN2CCOCC2)c1 [Example 72] | −ve (−ve and +ve indicate that the value is below and above respectively, the no significant effect threshold, defined as 30% inhibition at 1 μg/mL at the time point indicated) | −ve (−ve and +ve indicate that the value is below and above respectively, the no significant effect threshold, defined as 30% inhibition at 1 μg/mL at the time point indicated) | 2.6 | –
